# Laboratory results taken from US8241679B2, “Composition comprising the extract of crude drug complex having neuroprotective activity for preventing and treating stroke and neurodegenerative diseases” (Neumed Inc., priority 2007, dated 2012).
# Tested on: MCAo in rats
# Assay: MCAo experimental model, infarct volume (TTC staining)
# Type: in vivo, Sprague-Dawley rat
# Details: positive control, 45 mg/kg
# Experimental: To determine the preventing effect of the extract of crude drug complex of the present invention on neuronal injury, following intraluminal suture method using animal model was performed by modifying well-mown method disclosed in the literature (Zea L. E. Stroke, 20, pp 84-91, 1989).
# 8-weeks old white male Sprague-Dawley rat weighing about 280 g was procured from Samtaco Co. Ltd. (Seoul), […] for 1 week providing with free access to water and feed and acclimated to experimental environment.
# The rat was anesthetized with 5% isoflurane gas (mixed gas with the gas mixture consisting of 70% N2O and 30% O2 gas and 5% isoflurane) and maintained with 1% isoflurane gas during experiment.
# The skin at the center of rat neck was excised and right CCA (common carotid artery) and ECA (external carotid artery) were isolated from neighboring tissue and nerves with care. […]
# The body temperature was monitored and maintained at 37±0.5° C.
# The caudal was excised and terminal tissue was discarded to obtain 6 numbers of brain slices with the thickness of 2 mm using by brain matrix. […] The volume of cerebral infarction region was calculated by the OPTIMAS program (Media Cybernetics Co., 6.51 version). To determine the exact volume of cerebral infarction region of right hemisphere excluding edema volume (A), the real volume of cerebral infarction (B) was calculated by following Empirical Formula 1 and 2. […]
structure (smiles),measurement,value
CN(C)c1ccc(O)c2c1C[C@H]1C[C@H]3[C@H](N(C)C)C(O)=C(C(N)=O)C(=O)[C@@]3(O)C(O)=C1C2=O [minocycline],infarct volume,20.5±2.85%
